Two compounds from US4882349A, “Pyrrolacetic amides having antiinflammatory activity” (priority 1982, dated 1989) can be followed below.

One data set is described as follows: solubility. Format: physicochemical.
The subject of data set [1] is carrageenin-induced oedema. Briefly: carrageenin-induced oedema test (anti-inflammatory activity). Format: in vivo, albino male Wistar rats. On the procedure:
This effect was evaluated by means of an experimental model reproducing acute inflammation: for this purpose the carrageenin- induced oedema test was employed following the method described by C.
Albino male Wistar rats weighing 140-160 g were caged for 10 days at 22±1° C. and given a balanced diet and water ad libitum. Eighteen hours before the experiment the animals were randomized into groups of ten and fasted but with free access to water. Each dose was tested in three groups of rats. Each compound was given either orally, by gavage, or parenterally--intraperitoneal injection--administering as follows:
controls: 0.5% carboxymethylcellulose suspension in physiological saline, 10 ml/kg
treated: suspension of the compounds to be tested in the same vehicle and at the same volume (10 ml/kg) used for the controls at the doses specified below.
One hour after administration of the compounds and vehicle, in order to provoke the oedema for determining the protective effect of the substances under examination, each rat received, by subcutaneous injection into the plantar surface of the left paw, 0.1 ml of 1% sterile carrageenin suspension.
A general note: Carrageenan injected into the paw causes an acute inflammation.

Consider `CCOC(=O)CNC(=O)Cc1ccc(C(=O)c2ccc(C)cc2)n1C` [Compound 1-b, 1-methyl-5-p-toluoylpyrrole-2-acetamidoacetic acid ethyl ester], for which the Solubility result in “solubility” is listed as “soluble in the usual organic solvents”.
Take `COc1ccc2c(c1)c(CC(=O)O)c(C)n2C(=O)c1ccc(Cl)cc1` [Indomethacin, reference compound]: the oedema % inhibition in data set [1] (2.5 mg/Kg per os, 2 h) is 20.6%; in data set [1] (2.5 mg/Kg per os, 4 h), 33.7%; in data set [1] (2.5 mg/Kg per os, 6 h), 25.2%; in data set [1] (2.5 mg/Kg per os, 24 h), 6.0%; in data set [1] (2.5 mg/Kg per os, 48 h), 0.0%; in data set [1] (2.5 mg/Kg per os, 72 h) it was 0.0%. Further, the oedema % inhibition in data set [1] (2.5 mg/Kg, Table IV (route not given), 2 h) was determined as 25.7%; in data set [1] (2.5 mg/Kg, Table IV (route not given), 4 h), 38.0%; in data set [1] (2.5 mg/Kg, Table IV (route not given), 6 h), 30.0%; in data set [1] (2.5 mg/Kg, Table IV (route not given), 24 h), 5.0%; in data set [1] (2.5 mg/Kg, Table IV (route not given), 48 h), 0.0%; in data set [1] (2.5 mg/Kg, Table IV (route not given), 72 h) it was 0.0%. The oedema % inhibition is reported as 34.3% in data set [1] (5 mg/Kg per os, 2 h); 45.9% in data set [1] (5 mg/Kg per os, 4 h); 42.1% in data set [1] (5 mg/Kg per os, 6 h); 4.2% in data set [1] (5 mg/Kg per os, 24 h); 0.0% in data set [1] (5 mg/Kg per os, 48 h); 0.0% in data set [1] (5 mg/Kg per os, 72 h). The oedema % inhibition in data set [1] (5 mg/Kg, Table IV (route not given), 2 h) was determined as 39.0%; in data set [1] (5 mg/Kg, Table IV (route not given), 4 h) it was 50.1%; in data set [1] (5 mg/Kg, Table IV (route not given), 6 h) it was 48.0%; in data set [1] (5 mg/Kg, Table IV (route not given), 24 h), 7.0%; in data set [1] (5 mg/Kg, Table IV (route not given), 48 h), 0.0%; in data set [1] (5 mg/Kg, Table IV (route not given), 72 h), 0.0%. In addition, the oedema % inhibition in data set [1] (10 mg/Kg per os, 2 h) was 66.4%; in data set [1] (10 mg/Kg per os, 4 h), 53.2%; in data set [1] (10 mg/Kg per os, 6 h), 51.6%; in data set [1] (10 mg/Kg per os, 24 h) it was 20.0%; in data set [1] (10 mg/Kg per os, 48 h) it was 6.0%; in data set [1] (10 mg/Kg per os, 72 h), 0.0%. Moreover, the oedema % inhibition in data set [1] (10 mg/Kg, Table IV (route not given), 2 h) is recorded as 70.8%; in data set [1] (10 mg/Kg, Table IV (route not given), 4 h), 66.6%; in data set [1] (10 mg/Kg, Table IV (route not given), 6 h), 65.0%; in data set [1] (10 mg/Kg, Table IV (route not given), 24 h) it was 16.0%; in data set [1] (10 mg/Kg, Table IV (route not given), 48 h), 0.0%; in data set [1] (10 mg/Kg, Table IV (route not given), 72 h) it was 0.0%.
